Laboratory results as given in PMC7046201, “Unexpected differences in the pharmacokinetics of N-acetyl-DL-leucine enantiomers after oral dosing and their clinical relevance” (PLoS ONE, 2020).
Where “and” joins values, the source holds several entries; their conditions need not be identical. Equal values may be shown once. One block for each compound: values may come before it.

Tests used:
[1] = parameters: method as in Neuzil et al. 2002; settings: humans, oral absorption; ref Neuzil et al. 2002; cited from earlier work
[2] = Brain concentration of enantiomers after oral dosing of mice; type: in vivo, male BALB/c mice
Method: (§1) In addition to plasma, skeletal muscle and brain tissue was also taken at less frequent time points (0.5, 2, 6, 24 and 48 h) and prepared for analysis by homogenization of 50 mg of tissue with 100 μL of acetonitrile. The samples were transferred to Waters 96-well plate and the sample was evaporated under nitrogen gas flow. The sample was reconstituted into 150 μl of 50% methanol:water and analysed by LC/MS. […] These samples were then prepared for analysis in the same way as the samples. […] QC samples from racemic-N-Acetyl-Leucine were prepared into concentrations of 40, 400 and 4000 ng/mL, corresponding to 20, 200 and 200 ng/mL concentration of both D- and L-enantiomers, respectively. […] QC samples were then prepared for analysis in the same way as the samples.
(§2) Quantification by HPLC was performed using a Supelco Astec CHIROBIOTIC T chiral HPLC column (2.1 x 150 mm, 5 μm particle size) with a Waters Acquity UPLC + Thermo Q-Exactive hybrid Orbitrap MS, using ESI negative polarity, nitrogen auxiliary gas (450°C), capillary voltage was 2000 and 350°C and controlled with the software Xcalibur 4.1. Samples were injected as a 4-μL volume and eluted with a gradient of buffer A (20 mM ammonium acetate) and buffer B (methanol) with a flow rate of 0.3 mL/min and column oven temperature of 30°C. The gradient was 80% A at 0 min; 20% A at 3.5 min and 80% A at 4.5 min Parallel Reaction Monitoring (PRM) and Full-MS-dd-MS2 were measured at the same time. […] Ions with aforementioned m/z was then collided and leucine fragment (m/z 130 or 134) was used in quantitation. In full-MS-dd-MS2 mode, every ion with intensity over a certain intensity was collided and fragments analyzed.

[3] = Skeletal muscle concentration of enantiomers after oral dosing of mice; type: in vivo, male BALB/c mice; settings: individual mice
Method: as §1, §2

[4] = Plasma pharmacokinetics of N-acetyl-leucine enantiomers after oral dosing of mice
Method: The animals were weighed on the day prior to dosing. The compound was administered to male BALB/c mice (n = 3 per time point) p.o. (100 mg/kg; 10 mL/kg) by oral gavage. Blood samples were collected into potassium EDTA tubes by venepuncture from the saphenous vein. Within 30 min following the sampling, blood was centrifuged for plasma separation (room temperature; 10 min; 2700 xg). The plasma samples were transferred into plastic tubes, frozen and stored at –20°C.
The plasma samples were prepared for analysis by mixing 50 μL of plasma with 100 μL of acetonitrile and mixed. In addition to plasma, skeletal muscle and brain tissue was also taken at less frequent time points (0.5, 2, 6, 24 and 48 h) and prepared for analysis by homogenization of 50 mg of tissue with 100 μL of acetonitrile. The samples were transferred to Waters 96-well plate and the sample was evaporated under nitrogen gas flow. The sample was reconstituted into 150 μl of 50% methanol:water and analysed by LC/MS. Standard plasma samples were prepared by spiking the injection solution with concentrations from 1 to 10 000 ng/mL by using one volume of spiking solution and nine volumes of injection solution. These samples were then prepared for analysis in the same way as the samples. […] QC samples from racemic-N-Acetyl-Leucine were prepared into concentrations of 40, 400 and 4000 ng/mL, corresponding to […] concentration of both D- and L-enantiomers, respectively. […] QC samples were then prepared for analysis in the same way as the samples.
Quantification by HPLC was performed using a Supelco Astec CHIROBIOTIC T chiral HPLC column (2.1 x 150 mm, 5 μm particle size) with a Waters Acquity UPLC + Thermo Q-Exactive hybrid Orbitrap MS, using ESI negative polarity, nitrogen auxiliary gas (450°C), capillary voltage was […] and controlled with the software Xcalibur 4.1. Samples were injected as a 4-μL volume and eluted with a gradient of buffer A (20 mM ammonium acetate) and buffer B (methanol) with a flow rate of 0.3 mL/min and column oven temperature of 30°C. The gradient was 80% A at 0 min; 20% A at 3.5 min and 80% A at 4.5 min Parallel Reaction Monitoring (PRM) and Full-MS-dd-MS2 were measured at the same time. […] Ions with aforementioned m/z was then collided and leucine fragment (m/z 130 or 134) was used in quantitation. In full-MS-dd-MS2 mode, every ion with intensity over a certain intensity was collided and fragments analyzed.
Plasma pharmacokinetic parameters of the N-acetyl-leucine enantiomers were calculated using Phoenix 64 (Build 6.4.0.768) WinNonlin (version 6.4) software, using non-compartmental method with sparse sampling. Nominal doses were used for all animals. The terminal phase half-life (T1/2), the time for 50% of the plasma concentration to decrease after some point of elimination, was calculated by least-squares regression analysis of the terminal linear part of the log concentration–time curve using the relationship 0.693/ke. The area under the plasma concentration–time curve (AUC), an estimation of plasma drug exposure over time, was determined with the linear trapezoidal rule for increasing values and log trapezoidal rule for decreasing values up to the last measurable concentration (AUC0-last). The first order elimination rate constant ke was calculated as the slope (minimum 3 points) from the terminal log plasma concentration time curve. The maximum concentration (Cmax) and the time taken to achieve the peak concentration (Tmax) after oral dose were obtained directly from the plasma concentration data without interpolation. The theoretical background and interpretation of the pharmacokinetic data was based on. Where appropriate, data are expressed as the mean ± standard error of the mean. Means were statistically analysed by either pre-planned t tests or a one-sample t test comparing the measured value with the expected value.

[5] = 0.30 h after p.o. N-Acetyl-DL-Leucine 100 mg/kg
[6] = 2.00 h after p.o. N-Acetyl-DL-Leucine 100 mg/kg
[7] = male, BALB/c, mouse, skeletal muscle, oral, 100 mg/kg, 0.30 h after p.o. N-Acetyl-DL-Leucine 100 mg/kg
[8] = 0.15 h after p.o. N-Acetyl-L-Leucine 100 mg/kg, individual mice
[9] = 0.30 h after p.o. N-Acetyl-L-Leucine 100 mg/kg, individual mice
[10] = 1.00 h after p.o. N-Acetyl-L-Leucine 100 mg/kg, individual mice
[11] = 2.00 h after p.o. N-Acetyl-L-Leucine 100 mg/kg, individual mice
[12] = 4.00 h after p.o. N-Acetyl-L-Leucine 100 mg/kg, individual mice
[13] = 6.00 h after p.o. N-Acetyl-L-Leucine 100 mg/kg, individual mice
[14] = 8.00 h after p.o. N-Acetyl-L-Leucine 100 mg/kg, individual mice
[15] = 24.0 h after p.o. N-Acetyl-L-Leucine 100 mg/kg, individual mice
[16] = 32.0 h after p.o. N-Acetyl-L-Leucine 100 mg/kg, individual mice
[17] = 48.0 h after p.o. N-Acetyl-L-Leucine 100 mg/kg, individual mice
[18] = male, BALB/c, mouse, in vivo, po, 100 mg/kg
[19] = male, BALB/c, mouse, plasma, oral, 100 mg/kg, concentration in plasma, 0.30 h after p.o. N-Acetyl-L-Leucine 100 mg/kg, individual mice
[20] = male, BALB/c, mouse, plasma, oral, 100 mg/kg, concentration in plasma, 6.00 h after p.o. N-Acetyl-L-Leucine 100 mg/kg, individual mice
[21] = male, BALB/c, mouse, plasma, po, 100 mg/kg
[22] = plasma, after oral N-Acetyl-L-Leucine, nominal dose 100 mg/kg
[23] = plasma, after oral N-Acetyl-L-Leucine, nominal dose 100 mg/kg, 100 mg/kg
[24] = plasma, after oral N-Acetyl-L-Leucine, nominal dose 100 mg/kg, listed as D-enantiomer, 100 mg/kg
[25] = plasma, after oral N-Acetyl-L-Leucine, nominal dose 100 mg/kg, listed as L-enantiomer, 100 mg/kg

SMILES: CC(=O)NC(CC(C)C)C(=O)O (racemic) [N-Acetyl-DL-Leucine, N-acetyl-DL-leucine]
elimination half-life [1]: 60 to 108 min

concentration in brain ([2]; 0.30 h after p.o. N-Acetyl-DL-Leucine 100 mg/kg, individual mice): 357 ng/mL and 491 ng/mL and 888 ng/mL | concentration in brain ([2]; 2.00 h after p.o. N-Acetyl-DL-Leucine 100 mg/kg, individual mice): <LoQ | concentration at 2 h ([2]; male, BALB/c, mouse, brain, oral, 100 mg/kg, 2.00 h after p.o. N-Acetyl-DL-Leucine 100 mg/kg, individual mice): 117 ng/mL | concentration in muscle [3, 5]: 4370 ng/mL and 3590 ng/mL | concentration in muscle ([3]; 0.30 h after p.o. N-Acetyl-L-Leucine 100 mg/kg): 1110 ng/mL and 1520 ng/mL | concentration in muscle [3, 6]: 335 ng/mL and 396 ng/mL and 829 ng/mL | concentration in muscle ([3]; 2.00 h after p.o. N-Acetyl-L-Leucine 100 mg/kg): 119 ng/mL and 109 ng/mL | concentration at 0.3 h [3, 7]: 2860 ng/mL | concentration at 0.3 h ([3]; male, BALB/c, mouse, skeletal muscle, oral, 100 mg/kg, 0.30 h after p.o. N-Acetyl-L-Leucine 100 mg/kg): 1090 ng/mL | concentration at 2 h ([3]; male, BALB/c, mouse, skeletal muscle, oral, 100 mg/kg, 2.00 h after p.o. N-Acetyl-L-Leucine 100 mg/kg): 112 ng/mL | concentration in plasma [4, 8]: 391 ng/mL and 336 ng/mL | concentration in plasma [4, 9]: 463 ng/mL and 388 ng/mL | concentration in plasma [4, 10]: 116 ng/mL and 144 ng/mL and 248 ng/mL | concentration in plasma [4, 11]: <LoQ and 45.6 ng/ml | concentration in plasma [4, 12]: <LoQ | concentration in plasma [4, 13]: <LoQ and 21.4 ng/ml | concentration in plasma [4, 14]: 15.0 ng/ml and <LoQ | concentration in plasma [4, 15]: <LoQ | concentration in plasma [4, 16]: <LoQ | concentration in plasma [4, 17]: <LoQ | actual dose proportionality for AUC ([4]; male, BALB/c, mouse, in vivo): 101 fold | actual dose proportionality for Cmax ([4]; male, BALB/c, mouse, in vivo): 197 fold | Clast [4, 18]: 247 ng/mL | Cmax [4, 18]: 86100 ng/mL | Tmax [4, 18]: < 15 min | half-life [4, 18]: 18.6 min | k el [4, 18]: 0.000611 s⁻¹ | ke [4, 18]: 2.2 | concentration at 0.15 h ([4]; male, BALB/c, mouse, plasma, oral, 100 mg/kg, concentration in plasma, 0.15 h after p.o. N-Acetyl-L-Leucine 100 mg/kg, individual mice): 582 ng/mL | concentration at 0.3 h [4, 19]: 392 ng/mL | concentration at 2 h ([4]; male, BALB/c, mouse, plasma, oral, 100 mg/kg, concentration in plasma, 2.00 h after p.o. N-Acetyl-L-Leucine 100 mg/kg, individual mice): 33.4 ng/mL | concentration at 6 h [4, 20]: 23.3 ng/mL | concentration at 8 h ([4]; male, BALB/c, mouse, plasma, oral, 100 mg/kg, concentration in plasma, 8.00 h after p.o. N-Acetyl-L-Leucine 100 mg/kg, individual mice): 17.3 ng/mL | Cmax [4, 21]: 436 ng/mL | Tmax [4, 21]: < 15 min | half-life [4, 21]: 15 min | k el [4, 21]: 0.000472 s⁻¹ | AUC0-last [4, 22]: 573 h x ng/mL | ke [4, 22]: 1.7 | Clast [4, 23]: 16.2 ng/mL | Tlast [4, 23]: 8.00 h | Clast [4, 24]: 16 ng/mL | Tlast [4, 24]: 8 h
SMILES: CC(=O)N[C@H](CC(C)C)C(=O)O [N-Acetyl-D-Leucine, N-acetyl-D-leucine]

detection in brain ([2]; following oral dosing with the racemate, Fig 6B): not detectable at any time point | concentration in muscle [3, 5]: 605 ng/mL and 566 ng/mL | concentration in muscle [3, 6]: 364 ng/mL and 154 ng/mL and 193 ng/mL | concentration in muscle ([3]; 6.00 h after p.o. N-Acetyl-DL-Leucine 100 mg/kg): 159 ng/mL and 189 ng/mL | concentration in muscle ([3]; 24.0 h after p.o. N-Acetyl-DL-Leucine 100 mg/kg): 195 ng/mL and 153 ng/mL | concentration in muscle ([3]; 48.0 h after p.o. N-Acetyl-DL-Leucine 100 mg/kg): 102 ng/mL | concentration at 0.3 h [3, 7]: 469 ng/mL | concentration at 6 h ([3]; male, BALB/c, mouse, skeletal muscle, oral, 100 mg/kg, 6.00 h after p.o. N-Acetyl-DL-Leucine 100 mg/kg): 108 ng/mL | concentration at 24 h ([3]; male, BALB/c, mouse, skeletal muscle, oral, 100 mg/kg, 24.0 h after p.o. N-Acetyl-DL-Leucine 100 mg/kg): 136 ng/mL | concentration at 48 h ([3]; male, BALB/c, mouse, skeletal muscle, oral, 100 mg/kg, 48.0 h after p.o. N-Acetyl-DL-Leucine 100 mg/kg): 124 ng/mL | concentration in plasma [4, 9]: 7520 ng/mL and 10500 ng/mL | concentration in plasma [4, 10]: 1590 ng/mL and 4280 ng/mL and 5300 ng/mL | concentration in plasma [4, 11]: 73 ng/mL and 663 ng/mL and 502 ng/mL | concentration in plasma [4, 12]: 131 ng/mL and 139 ng/mL and 304 ng/mL | concentration in plasma [4, 13]: <LoQ and 114 ng/ml | concentration in plasma [4, 14]: <LoQ | concentration in plasma [4, 15]: <LoQ | concentration in plasma [4, 16]: <LoQ | concentration in plasma [4, 17]: <LoQ | actual dose proportionality for AUC ([4]; male, BALB/c, mouse, in vivo): 4.6 fold | actual dose proportionality for Cmax ([4]; male, BALB/c, mouse, in vivo): 4.9 fold | Clast [4, 18]: 623 ng/mL | Cmax [4, 18]: 3410 ng/mL | Tmax [4, 18]: < 15 min | half-life [4, 18]: 24 min | k el [4, 18]: 0.000778 s⁻¹ | ke [4, 18]: 2.8 | concentration at 0.3 h [4, 19]: 7510 ng/mL | concentration at 6 h [4, 20]: 222 ng/mL | Cmax [4, 21]: 16800 ng/mL | Tmax [4, 21]: < 15 min | half-life [4, 21]: 17.4 min | k el [4, 21]: 0.000667 s⁻¹ | Clast [4, 22]: 168 ng/mL | ke [4, 22]: 2.4 | AUC0-last [4, 23]: 11 400 h x ng/mL | Tlast [4, 23]: 6.00 h | AUC0-last [4, 25]: 11400 h x ng/mL | Tlast [4, 25]: 6 h
SMILES: CC(=O)N[C@@H](CC(C)C)C(=O)O [N-Acetyl-L-Leucine, N-acetyl-L-leucine]
concentration in plasma [4, 8]: 9090 ng/mL and 12400 ng/mL and 28900 ng/mL
